The numbers were not newly measured in PMC12359172, “Cell and tissue reprogramming: Unlocking a new era in medical drug discovery” (Pharmacological Reviews, 2025), which cites them from elsewhere.

Data set [1] concerns AMD iPSC-derived RPE cells. Further details: method as in PMID 35056119, PMID 33918210. To be noted: ref [431],[432].
The test system of data set [2] is human dermal fibroblasts / primary human cardiac fibroblasts. To be noted: for effect on cardiac fibroblast reprogramming: alongside MEF2C and TBX5 (MT), chemical screen of 2000 compounds, ref [472]; for reprogramming efficiency: HDF with GATA4, MEF2C, TBX5, MYOCD, NKX2-5, miR-1 and miR-133a plus small molecules, ref [468].
Details of data set [3]: method as in PMID 10066283, PMID 9704384. The following applies: ref [843],[844].
In data set [4] the test system is Müller glia (MG). The following applies: NMDA-induced injury, intraperitoneal injection as printed; ref [333].
For data set [5], the system named is skin fibroblasts from patients with ALS, HFFs, FAD fibroblasts. To be noted: human induced motor neuron model, chemical screen; ref [508].
Details of data set [6]: method as in PMID 32392694, PMID 27490705. The following applies: ref [392],[393].
Data set [7] relates to SMA iPSC-derived motor neurons. Further details: method as in PMID 19098894. The following applies: ref [391].
Data set [8] deals with iPSC-derived cardiac organoid. Further details: method as in PMID 32284552. To be noted: ref [442].
In data set [9] the test system is iPSC-derived cardiomyocytes (KCNQ1/TRPM4 mutation). To be noted: ref [413].
The test system of data set [10] is YAP. Further details: method as in PMID 33888614. To be noted: ref [139].

On to `NC(=O)c1ncn([C@@H]2O[C@H](COP(=O)(O)O)[C@@H](O)[C@H]2O)c1N` [5-aminoimidazole-4-carboxamide ribonucleotide], for which the “effect on mitochondrial function” value in data set [1] was “improved mitochondrial function”.
For the molecule `CCS(=O)(=O)N1CC(CC#N)(n2cc(-c3ncnc4[nH]ccc34)cn2)C1` [Baricitinib], in [2], the “effect on cardiac fibroblast reprogramming” value is “significantly improved reprogramming efficiency and promoted spontaneous contractile activity”.
For `O=c1[nH]c(=O)n([C@H]2C[C@H](O)[C@@H](CO)O2)cc1Br` [BrdU, bromodeoxyuridine], the developmental toxicity entry in [3] was “dose-dependent genetic and neurologic developmental defects”.
`Cc1c[nH]c(-c2cnc(NCCNc3ccc(C#N)cn3)nc2-c2ccc(Cl)cc2Cl)n1` [CHIR99021]: the reprogramming efficiency in data set [2] is less than 25%.
For `COCCOc1ccc(-c2cn(-c3ccccc3)c3nc[nH]c(=O)c23)cc1` [DMX-5804], the “effect on Müller glia” value in [4] was “promoted MG proliferation and conversion to a retinal progenitor cell–like state”.
Regarding `CC(C)(C)c1nc2c3cc[nH]c(=O)c3c3cc(F)ccc3c2[nH]1` [JAK1 inhibitor (EMD4Biosciences; 420099)], the reprogramming efficiency in [2] is less than 25%.
Take `O=C1Cc2c([nH]c3ccc(Br)cc23)-c2ccccc2N1` [Kenpaullone]: in [5], the “rescue of ALS-specific disease characteristics” value was “rescuing ALS-specific disease characteristics, including restoring electrophysiological activity and the ability to form NMJs”.
On to `CN(C)C(=N)N=C(N)N` [Metformin], for which the “effect on mitochondrial function” value in data set [1] is on record as “improved mitochondrial function”.
Regarding `NC(=O)c1ccc(-c2nc(-c3ccc4c(c3)OCO4)c(-c3ccccn3)[nH]2)cc1` [SB431542], in [2], the “effect on cardiac fibroblast reprogramming” value was “significantly improved reprogramming efficiency and promoted spontaneous contractile activity”.
Consider `CCCC(CCC)C(=O)O` [VPA, valproic acid], for which the clinical trial outcome in [6] was “failed in clinical trials”. Also, the drug screening outcome in [7] was “potential treatments”.
With `Oc1nc(-c2ccc(C(F)(F)F)cc2)nc2c1CSCC2` [Xav939], the iCM function result in data set [2] (MST cocktail (MYOCD, SMAD6, TBX20) combined with FGF2 and XAV939, primary human cardiac fibroblasts, ref [536]) is “spontaneous contractions and calcium transients”.
With `COc1cccc2c1C(=O)c1c(O)c3c(c(O)c1C2=O)C[C@@](O)(C(=O)CO)C[C@@H]3O[C@H]1C[C@H](N)[C@H](O)[C@H](C)O1` [doxorubicin], the “cardiotoxicity detected by model” value in data set [8] is “cardiotoxic effects”.
Consider `NC[C@H]1O[C@H](O[C@H]2[C@H](O)[C@@H](O[C@H]3O[C@H](CO)[C@@H](O)[C@H](N)[C@H]3O)[C@H](N)C[C@@H]2N)[C@H](N)C[C@@H]1O` [tobramycin], for which, in data set [7], the drug screening outcome is recorded as “potential treatments”.
As for `COc1ccc(CCN(C)CCCC(C#N)(c2ccc(OC)c(OC)c2)C(C)C)cc1OC` (stereo not shown) [verapamil], the drug screening outcome in [9] is given as “potential treatment”.
Turning to verteporfin, in [10], the fibroblast-mediated regeneration entry was “enhance fibroblast-mediated regeneration, improving mechanical strength and reducing scarring”.
